Experimental findings from paper PMC7194013 (Nature plants, 2020) are described below.

Each structure is given as a SMILES string. pIC50: −log10 of the molar value.

Common to all, as to assay: in vitro enzyme assay with purified recombinant CPS and GGPP, GC-FID
Assay type in all cases: biochemical

The target in experiment [1] is T1, AtCPS (ent-copalyl diphosphate synthase, GA1) (Arabidopsis thaliana, UniProt Q38802).
T1 sequence (Q38802 85-802): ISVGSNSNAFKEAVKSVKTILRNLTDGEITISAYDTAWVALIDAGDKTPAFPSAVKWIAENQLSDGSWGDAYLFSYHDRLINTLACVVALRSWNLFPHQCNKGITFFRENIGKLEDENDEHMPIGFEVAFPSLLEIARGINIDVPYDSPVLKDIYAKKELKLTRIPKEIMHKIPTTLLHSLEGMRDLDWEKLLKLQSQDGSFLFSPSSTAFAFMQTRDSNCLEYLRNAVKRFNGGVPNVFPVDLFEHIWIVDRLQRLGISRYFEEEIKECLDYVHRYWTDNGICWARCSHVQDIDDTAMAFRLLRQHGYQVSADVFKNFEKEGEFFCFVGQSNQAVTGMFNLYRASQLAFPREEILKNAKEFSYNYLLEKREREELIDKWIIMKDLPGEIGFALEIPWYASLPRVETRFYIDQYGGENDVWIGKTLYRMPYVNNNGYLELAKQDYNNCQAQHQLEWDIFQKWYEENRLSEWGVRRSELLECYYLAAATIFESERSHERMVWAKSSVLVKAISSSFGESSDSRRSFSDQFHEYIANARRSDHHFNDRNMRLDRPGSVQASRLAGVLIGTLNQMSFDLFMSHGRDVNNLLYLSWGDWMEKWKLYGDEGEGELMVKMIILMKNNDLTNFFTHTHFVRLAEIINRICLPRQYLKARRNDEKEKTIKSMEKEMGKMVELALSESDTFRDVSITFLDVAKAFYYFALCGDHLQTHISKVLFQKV

In experiment [2] the target is T2, ZmCPS2 (An2) (Zea mays, UniProt A0A1D6K6U5).
T2 sequence (A0A1D6K6U5 71-825): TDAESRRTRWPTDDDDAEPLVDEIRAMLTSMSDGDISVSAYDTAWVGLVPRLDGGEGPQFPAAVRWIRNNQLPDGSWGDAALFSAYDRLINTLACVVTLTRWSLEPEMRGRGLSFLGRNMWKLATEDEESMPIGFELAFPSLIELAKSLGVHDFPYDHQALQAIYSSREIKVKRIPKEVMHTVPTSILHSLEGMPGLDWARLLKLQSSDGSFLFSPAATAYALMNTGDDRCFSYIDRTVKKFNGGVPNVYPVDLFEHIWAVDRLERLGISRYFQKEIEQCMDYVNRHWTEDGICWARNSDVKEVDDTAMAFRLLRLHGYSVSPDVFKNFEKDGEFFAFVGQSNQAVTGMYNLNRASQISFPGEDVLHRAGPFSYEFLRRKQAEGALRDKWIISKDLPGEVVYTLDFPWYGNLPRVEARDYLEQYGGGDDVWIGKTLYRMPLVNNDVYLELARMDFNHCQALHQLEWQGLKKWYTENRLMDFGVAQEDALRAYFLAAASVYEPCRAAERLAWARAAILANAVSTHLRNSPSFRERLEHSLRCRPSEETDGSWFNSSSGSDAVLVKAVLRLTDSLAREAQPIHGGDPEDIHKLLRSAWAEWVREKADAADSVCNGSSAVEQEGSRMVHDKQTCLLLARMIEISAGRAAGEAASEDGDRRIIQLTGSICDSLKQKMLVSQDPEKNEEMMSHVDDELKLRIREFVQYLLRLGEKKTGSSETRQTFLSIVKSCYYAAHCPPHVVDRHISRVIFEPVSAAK

For experiment [3], the target named is T3, ZmCPS1 (An1) (Zea mays, UniProt Q41771).
T3 sequence (Q41771 64-824): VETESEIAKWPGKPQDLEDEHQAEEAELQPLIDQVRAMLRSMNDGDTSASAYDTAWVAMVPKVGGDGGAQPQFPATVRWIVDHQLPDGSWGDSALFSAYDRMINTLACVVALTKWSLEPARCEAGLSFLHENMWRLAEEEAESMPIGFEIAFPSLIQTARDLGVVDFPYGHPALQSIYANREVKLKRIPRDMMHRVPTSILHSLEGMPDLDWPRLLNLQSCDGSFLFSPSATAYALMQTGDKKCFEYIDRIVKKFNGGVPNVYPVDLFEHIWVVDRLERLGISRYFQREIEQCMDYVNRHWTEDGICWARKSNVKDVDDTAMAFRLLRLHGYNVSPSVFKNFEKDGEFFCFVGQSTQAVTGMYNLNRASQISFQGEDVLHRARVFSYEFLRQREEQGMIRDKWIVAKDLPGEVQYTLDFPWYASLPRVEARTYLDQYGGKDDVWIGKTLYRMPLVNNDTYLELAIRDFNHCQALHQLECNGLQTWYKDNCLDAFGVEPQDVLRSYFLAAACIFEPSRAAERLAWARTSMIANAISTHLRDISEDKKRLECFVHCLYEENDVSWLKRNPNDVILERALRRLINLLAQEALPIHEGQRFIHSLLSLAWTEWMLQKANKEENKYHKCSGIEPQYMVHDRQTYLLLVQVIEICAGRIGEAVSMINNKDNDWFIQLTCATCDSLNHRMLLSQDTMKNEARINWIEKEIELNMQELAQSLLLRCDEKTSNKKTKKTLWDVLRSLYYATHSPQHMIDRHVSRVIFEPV

For `C[N+]1(C)CCCCC1` [DPC, 1,1-dimethyl-piperidinium chloride], the values for the negative logarithm of the IC50 (pIC50) in experiment [1], in experiment [2] and in experiment [3] were 4.52, 2.40 and 2.70, respectively.

Broadly, the pIC50 is the IC50 on a negative log10 scale, so that one unit is a factor of ten.
